{"source": "patent US20210353612A1", "about": "“HYPOXIA-INDUCIBLE FACTOR PROLYL HYDROXYLASE INHIBITORS FOR TREATING AGING-RELATED CONDITIONS” (BioAge Labs, Inc., priority 2020, published 2021)", "key": {"aged C57BL/6 mice": {"test_system": "aged C57BL/6 mice", "assay": "Hemoglobin levels in aged mice (Hb assay kit ab234046)", "format": "in vivo, mouse", "conditions": "for Hemoglobin concentration vs vehicle control (FIG. 4B): after 14 days of treatment; for Hemoglobin levels in aged mice, Mean: 27-month-old mice", "protocol": "(§1) In this study, aged mice were treated with BGE-117 daily for 35 days. Daily voluntary running wheel activity levels, as well as hemoglobin levels at Days 0 and 14, were measured. The effects of the BGE-117 compound were examined for the reversal of frailty in mice.\nThe BGE-117 compound for the TA-1 treatment group was formulated in 0.5% carboxymethylcellulose (CMC) and 0.5% Tween 80 and constituted at a concentration of 1 mg/ml. The test article for the Control group included 0.5% CMC and 0.5% Tween 80, acting as a vehicle control. Mice were treated with BGE-117 at a concentration of 1 mg/ml at a volume of 300 μl/mouse (0.3 ml/mouse), for 0.3 mg/dose (TA-1); control group mice (TA-2) were administered a vehicle control at a dose volume of 0.3 ml/mouse. Administration was oral, once per day.\nUsing a 4 mm lancet, approximately 150 microliters of whole blood was collected from the submental vein, utilizing the submandibular vein as back-up. Blood was collected using 500 microliter Serum Separator tubes and stored at room temperature for 45 minutes or until clotted. Blood was centrifuged at 4000 RPM for 10 minutes in at 4° C. If the serum was not analyzed immediately, the serum was apportioned into 0.5 ml aliquots, stored, and transported at −80° C.\nThe following procedure was performed for the hemoglobin assay: • 1. Mouse blood was collected in Li-heparin tubes. • 2. Blood was briefly vortexed and 2 μl of whole blood was transferred into a 96-well clear plate containing 18 μl of distilled water. • 3. 160 μl sample buffer was added to the 96-well clear plate from the Hemoglobin Assay Kit (ab234046). • 4. 20 μl 1N NaOH was added to blood samples to the diluted sample in each well. • 5. The standard curve was established with included hemoglobin standard (ab234046) as per the manufacturer's instruction. • 6. The reaction was incubated at room temperature for 8-15 minutes. Read absorbance at 575 nm in end point mode. • 7. Hb concentration was calculated as recommended by the assay kit."}, "5/6 nephrectomized rats": {"test_system": "5/6 nephrectomized rats", "conditions": "5/6 nephrectomized rats (Kato et al. 2019); cited from earlier work"}, "[1]": {"test_system": "patients over 65 years of age with UAA", "assay": "Phase 2a, 12-week, randomized, double-blind, placebo-controlled study in Unexplained Anemia of Aging (UAA)", "format": "in vivo, human", "conditions": "elderly UAA subjects; 4-24 mg once daily, 12 weeks", "from_the_text": "Study Title: A Phase 2a, 12-Week, Randomized, Double-Blind, Placebo-Controlled, Multi-Center Study to Evaluate Efficacy and Safety of BGE-117 in the Treatment of Unexplained Anemia of Aging (UAA)\nThis is a Phase II, randomized, double-blind, placebo-controlled multi-center study to compare the safety of BGE-117 when administered in patients over 65 years of age for 12 weeks. The study consists of 3 periods: Screening, Treatment, and Follow-up. FIG. 16 provides a summary of the study design.\nThe study size for this study is 160 evaluable subjects (80 subjects randomized to BGE-117 and 80 subjects randomized to placebo). The subject's maximum duration of participation is approximately 154 days. This includes 6 weeks for the Screening Period, 12 weeks for the Treatment Period, and 4 weeks for the Follow-up Period.\nSubjects are advised to take IP with water once a day, recommended that the subject take the study medication 1 hour before their morning meal, starting on Visit 3 (Day 1), for 84 consecutive days, through Visit 15 (Day 85). Capsules are taken whole, not crushed, chewed, or cut.\nThis study is a double-blind, placebo-controlled study. Subjects are randomized to receive either of the following: • BGE-117: a hypoxia inducible factor-prolyl hydroxylase (HIF-PHD) inhibitor in 4 mg and 12 mg capsules; or • Placebo: matching capsule without active drug • The starting dose and maximum dose for BGE-117/placebo is based on a subject's screening renal function results: • The starting dose for subjects with an estimated glomerular filtration rate (eGFR) ≥60 mL/min/1.73 m2 is 12 mg/placebo. The maximum dose is 24 mg/placebo. • The starting dose for subjects with an eGFR between ≥30 and <60 mL/min/1.73 m^2is 4 mg/placebo. The maximum dose is 16 mg/placebo.\nFrom Visits 5 through 11 (Days 15 through 57), dose adjustment opportunities are scheduled approximately every 14 days to achieve and maintain Hb within the target range. Dose adjustments are based on the local laboratory's results, with the goal of titrating Hb levels to a range of ≥12.0 to ≤13.0 g/dL. In the event of excessively rapid Hb increases or unacceptably high Hb levels or trends, in the investigator's opinion, the dose may be adjusted at any time, even on visits without a dose adjustment review.\n• Improvement in Hb at Visit 15 (Day 85/EOTP) compared to baseline\n• Improvement in FACIT-Fatigue Score at Visit 15 (Day 85/EOTP) compared to baseline\n• Change in Hb at Visits 7, and 11 (Days 29, and 57) and Follow-up Visit compared to baseline • Improvement in FACIT-Fatigue score at Visits 7 and 11 (Day 29 and 57) and the Follow-up Visit compared to baseline • Change in SPPB Score at Visits 7, 11, and 15 (Day 29, 57, and 85), and Follow-up Visit compared to baseline • Change in 6MWT Distance at Visits 7, 11, and 15 (Days 29, 57, and 85) and the Follow-up Visit compared to baseline • Change in SF-36 at Visits 7, 11, and 15 (Days 29, 57, and 85) and the Follow-up Visit compared to baseline • Evaluate the starting dose of BGE-117 in the treatment of UAA for subjects with eGFR ≥60 mL/min/1.73 m^2 and subjects with eGFR ≥30 and <60 mL/min/1.73 m^2\nChange in Hb is the primary endpoint and is a direct assessment of the disease of unexplained anemia in aging patients. Changes in FACIT-Fatigue is the key secondary endpoint. Analysis of both of these endpoints is an ANCOVA with baseline covariates. Testing for FACIT-Fatigue is done only after achieving statistical significance for the change in Hb."}, "[2]": {"test_system": "HIF prolyl hydroxylase (PHD) 1/2/3", "conditions": "cited from earlier work"}, "[3]": {"test_system": "27-month-old C57BL/6 mice", "assay": "Activity monitoring wheel test (voluntary running wheel activity) in aged mice", "format": "in vivo, mouse", "conditions": "27-month-old mice; 0.3 mg/dose PO once daily for 35 days", "protocol": "as §1\nThe animals were housed with access to voluntary running wheels that wirelessly transmit running data to a computer for analysis. The outcome of interest was the median number of daily wheel rotations generated by mice in each group (n=9 per group), and this is shown as the dots in FIG. 6 (one median number of rotations per day per group) and also as the numbers on the right. […]\nThe first day of the study (Study Day 1) started with Animal Acclimation, followed by the BGE-117 treatment start date on Study Day 33 (Phase Day 1). […] For the frailty portion of the study, mice were assessed using an activity monitoring wheel which was monitored passively with a computer monitoring system. […]\nThe activity monitoring wheel is a running disk that monitors rotations. […] Activity was monitored passively and wirelessly with a computer monitoring system. Running wheel activity levels were monitored daily. […]\nThe wheels were electronically monitored and the number of rotations of the wheel per minute was recorded continuously throughout the entire study."}, "[4]": {"test_system": "patients with chronic kidney disease and normal healthy human volunteers", "conditions": "patients with chronic kidney disease and normal healthy human volunteers (Shinfuku et al. 2018); cited from earlier work"}, "[5]": {"test_system": "23-month-old and 27-month old C57BL/6 mice with anemia of inflammation", "assay": "Hemoglobin in aged mice with anemia of inflammation (elevated TNFα and/or IL-6), BGE-117 study", "format": "in vivo, mouse", "conditions": "10 mg/kg PO once daily", "protocol": "The study included 23-month-old mice (n=39) (23-months old at the start of the experiment, and 24 months old at the end since the experiment lasted 35 days) and 27-month old mice (n=14) (27-months old at the start of the experiment, and 28 months old at the end since the experiment lasted 35 days) from strain C57BL/6 that were administered BGE-117 or vehicle once daily for a duration of […].\nOnce the 23 month old mice developed anemia of inflammation at 23-months (±2 weeks), mice were randomly divided into two groups: Anemia of inflammation vehicle-treated Control group 1 (“23-month Control Group” (CG1)) (n=18) and Anemia of inflammation BGE-117-treated group (“BGE-117 23-month Test Group” (BGE-117 TG1)) (n=21), while ensuring that the mean hemoglobin levels and inflammatory cytokine levels remained balanced among the groups.\nOnce the 27-month old mice developed anemia of inflammation at 27-months (±2 weeks), mice were randomly divided into two groups: Anemia of inflammation vehicle-treated Control group (“27-month Control Group” (CG2)) (n=8), Anemia of inflammation BGE-117-treated group (“BGE-117 27-month Test Group” (BGE-117 TG2)) (n=6), while ensuring that the mean hemoglobin levels remained balanced among the groups. The mice in the two “Anemia of inflammation” pre-treatment (baseline) groups had high (130% or higher of the median values) TNFα and/or IL-6 as indicated in FIGS. 11-12.\nThe 23-month old and 27-month old Test Groups BGE-117 TG1 and BGE-117 TG2 were administered 10 mg/kg of BGE-117 once daily for 5 weeks by oral gavage in 0.5% carboxymethylcellulose (CMC) and 0.5% Tween 80. The 23-month old and 27-month old Control Groups CG1 and CG2 were administered vehicle of 0.5% carboxymethylcellulose (CMC) and 0.5% Tween 80 by oral gavage on the same schedule.\nBlood was collected from the submandibular vein at the start of the study immediately before drug administration, and after 14 days of drug administration. The blood samples was mixed with EDTA and analyzed using the Hemoglobin assay kit from Abcam (ab234046) with modification. The signal was read on Molecular Device SpectraMax 340PC-384. The inflammatory markers were measured by Luminex Mouse Magnetic Assay (5-PLEX, LXSAMSM-05 by R&D Systems) on Luminex 200. At day 35 post drug initiation the mice were anesthetized with isoflurane and blood samples were collected from abdominal vein."}}, "note": "“Also recorded” adds a separate entry of the source.", "data": [{"molecule": "O=C(O)CNC(=O)C1=C(O)CCN(Cc2ccc(Oc3ccc(Cl)cc3)nc2)C1=O", "note": "[BGE-117, N-[(1{[6-(4-chlorophenoxy)-3-pyridinyl]methyl}-4-hydroxy-2-oxo-1,2,5,6-tetrahydro-3-pyridinyl)carbonyl]glycine]", "values": [{"measurement": "Hemoglobin concentration vs vehicle control (FIG. 4B)", "setting": "aged C57BL/6 mice; 23-month old mice", "value": "significant increase of hemoglobin levels"}, {"measurement": "Hemoglobin concentration vs vehicle control (FIG. 4B)", "setting": "aged C57BL/6 mice; 27-month old mice", "value": "significant increase of hemoglobin levels"}, {"measurement": "Hemoglobin levels in aged mice, Mean", "setting": "aged C57BL/6 mice; Week 0 (before treatment), BGE-117 group", "value": 10.98, "unit": "g/dL"}, {"measurement": "Hemoglobin levels in aged mice, Mean", "setting": "aged C57BL/6 mice; Week 2, 0.3 mg/dose PO once daily", "value": 19, "unit": "g/dL"}, {"measurement": "Hemoglobin levels", "setting": "5/6 nephrectomized rats", "value": "increase hemoglobin levels"}, {"measurement": "Activity levels and sleep quality compared to baseline", "setting": "[1]", "value": "Improve activity levels and sleep quality"}, {"measurement": "Fatigue (FACIT-Fatigue Score) compared to baseline", "setting": "[1]", "value": "Reduce fatigue"}, {"measurement": "Hemoglobin levels compared to baseline", "setting": "[1]", "value": "Increase hemoglobin levels"}, {"measurement": "Oxygen delivery, mobility, QOL, and energy levels", "setting": "[1]", "value": "Improve oxygen delivery, mobility, QOL, and energy levels"}, {"measurement": "Physical activity (SPPB scores, 6MWT, grip strength test) compared to baseline", "setting": "[1]", "value": "Improve physical activity"}, {"measurement": "HIF prolyl hydroxylase inhibition, type", "setting": "[2]", "value": "competitive HIF prolyl hydroxylase (PHD) 1/2/3 pan-inhibitor"}, {"measurement": "Voluntary running wheel activity (median daily wheel rotations) vs age-matched controls", "setting": "[3]", "value": "statistically significant (p<0.001) increase in voluntary activity; also recorded: significantly increased activity"}, {"measurement": "EPO production", "setting": "[4]", "value": "increase EPO production"}, {"measurement": "Hb levels of Test Groups vs Control Groups administered vehicle alone", "setting": "[5]; 23-month old and 27-month old Test Groups", "value": "significantly increased Hb levels"}, {"measurement": "Hemoglobin levels before vs after treatment (FIG. 9B)", "setting": "[5]; 23-month-old mice with elevated TNFα, after two weeks", "value": "significant increases in hemoglobin levels"}, {"measurement": "Hemoglobin levels before vs after treatment (FIG. 10B)", "setting": "[5]; 23 month old mice with elevated IL-6, after two weeks", "value": "Highly significant improvements in hemoglobin levels"}, {"measurement": "Hemoglobin levels before vs after treatment (FIG. 12B)", "setting": "[5]; 27-month old mice with elevated IL-6, after two weeks", "value": "Significant improvements in hemoglobin levels"}, {"measurement": "Hemoglobin levels before vs after treatment (FIG. 11B)", "setting": "[5]; 27-month-old mice with elevated TNFα, after two weeks", "value": "Significant improvements in hemoglobin levels"}]}]}
